# Measured values published in ChEMBL document CHEMBL1201862, “PubChem BioAssay data set” (2004).
#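 The compound was tested at five concentrations on cells cultured in 96-well plates, with a 48-hour exposure period. GI50 marks 50% less growth.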 Active and inactive are the calls of the source. Rule as the data show it: active = GI50 up to about 1.1 µM and inactive = higher.
# Columns and labels:
# Assay in all cases: NCI-60 cell line screen, 48 h
# 786-0 = test system: 786-0
# A498 = test system: A498
# A549 = test system: A549
# ACHN = test system: ACHN
# BT-549 = test system: BT-549
# CAKI-1 = test system: CAKI-1
# CCRF-CEM = test system: CCRF-CEM
# COLO 205 = test system: COLO 205
# DU-145 = test system: DU-145
# EKVX = test system: EKVX
# HCC 2998 = test system: HCC 2998
# HCT-116 = test system: HCT-116
# HCT-15 = test system: HCT-15
# HL-60 = test system: HL-60
# HOP-62 = test system: HOP-62
# HOP-92 = test system: HOP-92
# HT-29 = test system: HT-29
# Hs-578T = test system: Hs-578T
# IGROV-1 = test system: IGROV-1
# K562 = test system: K562
# KM12 = test system: KM12
# LOX IMVI = test system: LOX IMVI
# M14 = test system: M14
# MCF7 = test system: MCF7
# MDA-MB-231 = test system: MDA-MB-231
# MDA-MB-435 = test system: MDA-MB-435
# MOLT-4 = test system: MOLT-4
# Malme-3M = test system: Malme-3M
# NCI-H226 = test system: NCI-H226
# NCI-H23 = test system: NCI-H23
# NCI-H460 = test system: NCI-H460
# NCI-H522 = test system: NCI-H522
# NCI/ADR-RES = test system: NCI/ADR-RES
# OVCAR-3 = test system: OVCAR-3
# OVCAR-4 = test system: OVCAR-4
# OVCAR-5 = test system: OVCAR-5
# OVCAR-8 = test system: OVCAR-8
# PC-3 = test system: PC-3
# RPMI-8226 = test system: RPMI-8226
# RXF 393 = test system: RXF 393
# SF-268 = test system: SF-268
# SF-295 = test system: SF-295
# SF-539 = test system: SF-539
# SK-MEL-28 = test system: SK-MEL-28
# SK-MEL-2 = test system: SK-MEL-2
# SK-MEL-5 = test system: SK-MEL-5
# SK-OV-3 = test system: SK-OV-3
# SN12C = test system: SN12C
# SNB-19 = test system: SNB-19
# SNB-75 = test system: SNB-75
# SW-620 = test system: SW-620
# T47D = test system: T47D
# TK-10 = test system: TK-10
# U-251 = test system: U-251
# UACC-257 = test system: UACC-257
# UACC-62 = test system: UACC-62
# UO-31 = test system: UO-31
# SR = test system: SR
smiles,measurement,setting,value
O=S1(=O)OC(c2ccc(O)cc2)(c2ccc(O)cc2)c2ccccc21 [PHENOLSULFONPHTHALEIN],GI50,786-0,> 100 µM (inactive)
same,GI50,A498,> 100 µM (inactive)
same,GI50,A549,> 100 µM (inactive)
same,GI50,ACHN,> 100 µM (inactive)
same,GI50,BT-549,> 100 µM (inactive)
same,GI50,CAKI-1,> 100 µM (inactive)
same,GI50,CCRF-CEM,> 100 µM (inactive)
same,GI50,COLO 205,> 100 µM (inactive)
same,GI50,DU-145,> 100 µM (inactive)
same,GI50,EKVX,> 100 µM (inactive)
same,GI50,HCC 2998,> 100 µM (inactive)
same,GI50,HCT-116,> 100 µM (inactive)
same,GI50,HCT-15,> 100 µM
same,GI50,HL-60,> 100 µM (inactive)
same,GI50,HOP-62,> 100 µM (inactive)
same,GI50,HOP-92,> 100 µM (inactive)
same,GI50,HT-29,> 100 µM (inactive)
same,GI50,Hs-578T,> 100 µM (inactive)
same,GI50,IGROV-1,> 100 µM (inactive)
same,GI50,K562,> 100 µM (inactive)
same,GI50,KM12,> 100 µM (inactive)
same,GI50,LOX IMVI,> 100 µM (inactive)
same,GI50,M14,> 100 µM (inactive)
same,GI50,MCF7,> 100 µM (inactive)
same,GI50,MDA-MB-231,> 100 µM (inactive)
same,GI50,MDA-MB-435,> 100 µM (inactive)
same,GI50,MOLT-4,> 100 µM (inactive)
same,GI50,Malme-3M,> 100 µM (inactive)
same,GI50,NCI-H226,> 100 µM (inactive)
same,GI50,NCI-H23,> 100 µM (inactive)
same,GI50,NCI-H460,> 100 µM (inactive)
same,GI50,NCI-H522,> 100 µM (inactive)
same,GI50,NCI/ADR-RES,> 100 µM (inactive)
same,GI50,OVCAR-3,> 100 µM (inactive)
same,GI50,OVCAR-4,> 100 µM (inactive)
same,GI50,OVCAR-5,> 100 µM (inactive)
same,GI50,OVCAR-8,> 100 µM (inactive)
same,GI50,PC-3,> 100 µM (inactive)
same,GI50,RPMI-8226,> 100 µM (inactive)
same,GI50,RXF 393,> 100 µM (inactive)
same,GI50,SF-268,> 100 µM (inactive)
same,GI50,SF-295,> 100 µM (inactive)
same,GI50,SF-539,> 100 µM (inactive)
same,GI50,SK-MEL-28,> 100 µM (inactive)
same,GI50,SK-MEL-2,> 100 µM (inactive)
same,GI50,SK-MEL-5,> 100 µM (inactive)
same,GI50,SK-OV-3,> 100 µM (inactive)
same,GI50,SN12C,> 100 µM (inactive)
same,GI50,SNB-19,> 100 µM (inactive)
same,GI50,SNB-75,> 100 µM (inactive)
same,GI50,SW-620,> 100 µM (inactive)
same,GI50,T47D,> 100 µM (inactive)
same,GI50,TK-10,> 100 µM (inactive)
same,GI50,U-251,> 100 µM (inactive)
same,GI50,UACC-257,> 100 µM (inactive)
same,GI50,UACC-62,> 100 µM (inactive)
same,GI50,UO-31,> 100 µM (inactive)
C=C1CCC[C@@H](C)C(O)[C@@H]2OC(=O)C(=C)[C@@H]2C[C@@H](OC(C)=O)[C@@]2(C)CC[C@@H]1O2 (stereo partly specified),GI50,786-0,8.95 µM (inactive)
same,GI50,A498,9.84 µM (inactive)
same,GI50,A549,15.8 µM (inactive)
same,GI50,ACHN,6.89 µM (inactive)
same,GI50,BT-549,7.52 µM (inactive)
same,GI50,CAKI-1,6.89 µM (inactive)
same,GI50,CCRF-CEM,1.54 µM (inactive)
same,GI50,COLO 205,6.37 µM (inactive)
same,GI50,DU-145,7.66 µM (inactive)
same,GI50,EKVX,7.62 µM (inactive)
same,GI50,HCC 2998,7.89 µM (inactive)
same,GI50,HCT-116,6.97 µM (inactive)
same,GI50,HCT-15,3.78 µM
same,GI50,HOP-62,8.09 µM (inactive)
same,GI50,HOP-92,7.96 µM (inactive)
same,GI50,HT-29,8.47 µM (inactive)
same,GI50,Hs-578T,8.67 µM (inactive)
same,GI50,IGROV-1,8.15 µM (inactive)
same,GI50,K562,5.5 µM (inactive)
same,GI50,KM12,7.76 µM (inactive)
same,GI50,M14,6.97 µM (inactive)
same,GI50,MCF7,5.55 µM (inactive)
same,GI50,MDA-MB-231,8.36 µM (inactive)
same,GI50,MDA-MB-435,7.71 µM (inactive)
same,GI50,MOLT-4,4.84 µM (inactive)
same,GI50,NCI-H226,8.49 µM (inactive)
same,GI50,NCI-H23,8.09 µM (inactive)
same,GI50,NCI-H522,0.916 µM (active)
same,GI50,NCI/ADR-RES,6.78 µM (inactive)
same,GI50,OVCAR-3,5.37 µM (inactive)
same,GI50,OVCAR-4,13.7 µM (inactive)
same,GI50,OVCAR-5,7.87 µM (inactive)
same,GI50,OVCAR-8,7.19 µM (inactive)
same,GI50,PC-3,8.39 µM (inactive)
same,GI50,RPMI-8226,8.85 µM (inactive)
same,GI50,RXF 393,6.49 µM (inactive)
same,GI50,SF-268,7.8 µM (inactive)
same,GI50,SF-295,11.1 µM (inactive)
same,GI50,SF-539,7.98 µM (inactive)
same,GI50,SK-MEL-28,7.98 µM (inactive)
same,GI50,SK-MEL-2,8.34 µM (inactive)
same,GI50,SK-MEL-5,6.92 µM (inactive)
same,GI50,SK-OV-3,10.8 µM (inactive)
same,GI50,SN12C,8.51 µM (inactive)
same,GI50,SNB-19,45.2 µM (inactive)
same,GI50,SNB-75,0.91 µM (active)
same,GI50,SR,1.75 µM (inactive)
same,GI50,SW-620,8.3 µM (inactive)
same,GI50,T47D,9.66 µM (inactive)
same,GI50,TK-10,7.96 µM (inactive)
same,GI50,U-251,9.57 µM (inactive)
same,GI50,UACC-257,8.18 µM (inactive)
same,GI50,UACC-62,4.53 µM (inactive)
same,GI50,UO-31,8.09 µM (inactive)
